ChEMBL document CHEMBL1138582, “5-Aminopyrimidin-2-ylnitriles as cathepsin K inhibitors” (Bioorg Med Chem Lett, 2009)

Assays:
Cathepsin K = target: T1, Cathepsin K (Homo sapiens, UniProt P43235); experiment: Inhibition of cathepsin K
T1 sequence (P43235 whole entry): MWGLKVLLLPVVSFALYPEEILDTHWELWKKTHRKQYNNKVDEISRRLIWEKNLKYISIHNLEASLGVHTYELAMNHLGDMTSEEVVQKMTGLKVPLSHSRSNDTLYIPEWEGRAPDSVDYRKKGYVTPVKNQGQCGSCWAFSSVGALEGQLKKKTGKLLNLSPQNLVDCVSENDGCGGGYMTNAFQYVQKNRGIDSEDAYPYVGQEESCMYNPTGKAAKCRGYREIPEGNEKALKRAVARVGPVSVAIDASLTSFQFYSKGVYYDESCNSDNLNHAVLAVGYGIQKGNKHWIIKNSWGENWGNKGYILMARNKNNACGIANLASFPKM

Cathepsin B = Cathepsin B (Homo sapiens, UniProt P07858); experiment: Inhibition of cathepsin B
Procathepsin L = Procathepsin L (Homo sapiens, UniProt P07711); experiment: Inhibition of cathepsin L
Cathepsin S = Cathepsin S (Homo sapiens, UniProt P25774); experiment: Inhibition of cathepsin S
[1] = Electrophilicity, glutathione reactivity assessed as half life; assay type: physicochemical; design: unit not given here

Sequence of Procathepsin L (P07711 whole entry): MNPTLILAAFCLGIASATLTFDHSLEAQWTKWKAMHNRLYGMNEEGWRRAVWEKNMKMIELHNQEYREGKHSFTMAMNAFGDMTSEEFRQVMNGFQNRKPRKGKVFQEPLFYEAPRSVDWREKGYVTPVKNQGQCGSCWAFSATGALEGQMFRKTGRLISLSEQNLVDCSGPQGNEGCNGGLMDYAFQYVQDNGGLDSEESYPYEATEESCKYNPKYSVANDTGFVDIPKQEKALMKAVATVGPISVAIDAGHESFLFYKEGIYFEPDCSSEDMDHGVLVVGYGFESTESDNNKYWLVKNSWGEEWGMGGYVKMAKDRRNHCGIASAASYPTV
Sequence of Cathepsin S (P25774 whole entry): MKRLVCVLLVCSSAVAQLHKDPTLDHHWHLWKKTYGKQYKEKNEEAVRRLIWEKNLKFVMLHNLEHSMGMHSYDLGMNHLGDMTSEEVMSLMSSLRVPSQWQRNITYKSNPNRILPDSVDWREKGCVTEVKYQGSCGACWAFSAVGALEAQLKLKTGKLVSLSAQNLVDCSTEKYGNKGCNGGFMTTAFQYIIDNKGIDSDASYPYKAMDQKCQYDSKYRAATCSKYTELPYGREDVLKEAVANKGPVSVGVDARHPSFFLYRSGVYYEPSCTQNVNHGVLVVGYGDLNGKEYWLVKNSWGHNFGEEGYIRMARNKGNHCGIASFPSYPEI

IC50 (Cathepsin K)	logt1/2 [1]	SMILES	also measured
60 nM	–	N#Cc1nc(N2CCCC2)c(N)c(N2CCOCC2)n1	–
13 nM	–	N#Cc1nc(NC2CCCC2)c(N)c(N2CCOCC2)n1	–
6 nM	–	CC(C)CNc1nc(C#N)nc(N2CCNCC2)c1N	IC50 (Cathepsin B): 6.1 µM; IC50 (Procathepsin L): 1400 nM; IC50 (Cathepsin S): 890 nM
–	3	CN(C)c1nc(C#N)nc(Nc2ccccc2)c1N	–
32 nM	–	CC(C)CNc1nc(C#N)nc(N2CC(O)C2)c1N	–
110 nM	–	N#Cc1nc(Nc2ccccc2)c(N)c(N2CCOCC2)n1	–
560 nM	–	CC(C)Nc1nc(C#N)nc(N2CCOCC2)c1N	–
–	2.31	COc1c(Nc2ccccc2)nc(C#N)nc1N(C)C	–
–	2.67	CNc1cc(N(C)C)nc(C#N)n1	–
–	2.12	CN(C)c1cc(Nc2ccccc2)nc(C#N)n1	–
62 nM	–	CC(C)CNc1nc(C#N)nc(NCc2nnn[nH]2)c1N	–
9 nM	–	CC(=O)N1CCN(c2nc(C#N)nc(NCC(C)C)c2N)CC1	–
–	2.07	CN(C)c1nc(C#N)nc(Nc2ccccc2)n1	–
24 nM	–	COCCNc1nc(C#N)nc(NCC(C)C)c1N	–
–	3.38	CNc1nc(C#N)nc(N(C)C)c1N	–
340 nM	–	N#Cc1nc(NC2CCOC2)c(N)c(N2CCOCC2)n1 (configuration not stated)	–
–	2.56	CN(C)c1cc(N(C)C)nc(C#N)n1	–
–	3.26	CN(C)c1nc(C#N)nc(N(C)C)c1N	–
2 nM	–	N#Cc1nc(NC2CC3CCC2C3)c(N)c(N2CCOCC2)n1 (configuration not stated)	–
22 nM	–	N#Cc1nc(N2CCCCC2)c(N)c(N2CCOCC2)n1	–
14 nM	–	CC(C)CNc1nc(C#N)nc(NC2CCS(=O)(=O)C2)c1N (configuration not stated)	–
300 nM	–	CCC(C)Nc1nc(C#N)nc(N2CCOCC2)c1N (configuration not stated)	–
–	< 2.08	CNc1nc(C#N)nc(N(C)C)c1[N+](=O)[O-]	–
18 nM	–	CC(C)CNc1nc(C#N)nc(N2CCOCC2)c1N	IC50 (Procathepsin L): 2000 nM; IC50 (Cathepsin S): 560 nM
–	2.91	CNc1c(Nc2ccccc2)nc(C#N)nc1N(C)C	–
17 nM	–	CC(C)(C)CNc1nc(C#N)nc(N2CCOCC2)c1N	IC50 (Cathepsin B): > 10 µM; IC50 (Procathepsin L): > 10000 nM; IC50 (Cathepsin S): 910 nM
23 nM	–	N#Cc1nc(NC2CCCCC2)c(N)c(N2CCOCC2)n1	–
–	2.98	CN(C)c1nc(C#N)nc(Oc2ccccc2)c1N	–
–	2.19	CNc1nc(C#N)nc(N(C)C)c1Br	–
